Data published in the NIST ThermoML archive (doi:10.1021/je4002009).
± gives the expanded uncertainty stated by the source.

Assay: mn = molality of the nth substance listed, in mol/kg
Settings: 101 kPa, Liquid; for viscosity: Capillary tube (Ostwald / Ubbelohde) method

CN1CCCC1=O.Cc1ccc(S(=O)(=O)O)cc1 [1-methyl-2-pyrrolidinone p-toluenesulfonate] + O
viscosity (298.15 K, m1 = 0.0499): 0.9405 ± 0.011 mPa·s | viscosity (298.15 K, m1 = 0.1012): 0.9707 ± 0.011 mPa·s | viscosity (298.15 K, m1 = 0.1588): 0.9996 ± 0.012 mPa·s | viscosity (298.15 K, m1 = 0.1983): 1.021 ± 0.012 mPa·s | viscosity (298.15 K, m1 = 0.2691): 1.059 ± 0.012 mPa·s | viscosity (298.15 K, m1 = 0.3004): 1.077 ± 0.013 mPa·s | viscosity (298.15 K, m1 = 0.3421): 1.1 ± 0.013 mPa·s | viscosity (298.15 K, m1 = 0.398): 1.13 ± 0.013 mPa·s | viscosity (298.15 K, m1 = 0.4495): 1.155 ± 0.013 mPa·s | viscosity (298.15 K, m1 = 0.5139): 1.191 ± 0.014 mPa·s | viscosity (298.15 K, m1 = 0.6053): 1.241 ± 0.014 mPa·s | viscosity (298.15 K, m1 = 0.6615): 1.272 ± 0.015 mPa·s | viscosity (298.15 K, m1 = 0.7504): 1.319 ± 0.015 mPa·s | viscosity (298.15 K, m1 = 0.7605): 1.324 ± 0.015 mPa·s | viscosity (298.15 K, m1 = 0.8335): 1.366 ± 0.016 mPa·s | viscosity (298.15 K, m1 = 0.9023): 1.411 ± 0.017 mPa·s | viscosity (298.15 K, m1 = 1.007): 1.477 ± 0.017 mPa·s | viscosity (298.15 K, m1 = 1.201): 1.61 ± 0.019 mPa·s | mass density (298.15 K, m1 = 0.0499): 999.98 ± 0.76 kg/m3 | mass density (298.15 K, m1 = 0.1012): 1002.71 ± 0.78 kg/m3 | mass density (298.15 K, m1 = 0.1588): 1005.8 ± 0.81 kg/m3 | mass density (298.15 K, m1 = 0.1983): 1007.95 ± 0.84 kg/m3 | mass density (298.15 K, m1 = 0.2691): 1011.73 ± 0.88 kg/m3 | mass density (298.15 K, m1 = 0.3004): 1013.31 ± 0.89 kg/m3 | mass density (298.15 K, m1 = 0.3421): 1015.42 ± 0.91 kg/m3 | mass density (298.15 K, m1 = 0.398): 1018.29 ± 0.94 kg/m3 | mass density (298.15 K, m1 = 0.4495): 1020.8 ± 0.97 kg/m3 | mass density (298.15 K, m1 = 0.5139): 1023.87 ± 1 kg/m3 | mass density (298.15 K, m1 = 0.6053): 1028.17 ± 1.1 kg/m3 | mass density (298.15 K, m1 = 0.6615): 1030.76 ± 1.1 kg/m3 | mass density (298.15 K, m1 = 0.7504): 1034.66 ± 1.1 kg/m3 | mass density (298.15 K, m1 = 0.7605): 1035.06 ± 1.1 kg/m3 | mass density (298.15 K, m1 = 0.8335): 1038.2 ± 1.2 kg/m3 | mass density (298.15 K, m1 = 0.9023): 1041.05 ± 1.2 kg/m3 | mass density (298.15 K, m1 = 1.007): 1045.23 ± 1.2 kg/m3 | mass density (298.15 K, m1 = 1.201): 1052.61 ± 1.3 kg/m3 | viscosity (303.15 K, m1 = 0.0499): 0.8355 ± 0.0097 mPa·s | viscosity (303.15 K, m1 = 0.1012): 0.8613 ± 0.01 mPa·s | viscosity (303.15 K, m1 = 0.1588): 0.8905 ± 0.01 mPa·s | viscosity (303.15 K, m1 = 0.1983): 0.9097 ± 0.011 mPa·s | viscosity (303.15 K, m1 = 0.2691): 0.9445 ± 0.011 mPa·s | viscosity (303.15 K, m1 = 0.3004): 0.9602 ± 0.011 mPa·s | viscosity (303.15 K, m1 = 0.3421): 0.9826 ± 0.011 mPa·s | viscosity (303.15 K, m1 = 0.398): 1.007 ± 0.012 mPa·s | viscosity (303.15 K, m1 = 0.4495): 1.03 ± 0.012 mPa·s | viscosity (303.15 K, m1 = 0.5139): 1.058 ± 0.012 mPa·s | viscosity (303.15 K, m1 = 0.6053): 1.099 ± 0.013 mPa·s | viscosity (303.15 K, m1 = 0.6615): 1.127 ± 0.013 mPa·s | viscosity (303.15 K, m1 = 0.7504): 1.169 ± 0.014 mPa·s | viscosity (303.15 K, m1 = 0.7605): 1.173 ± 0.014 mPa·s | viscosity (303.15 K, m1 = 0.8335): 1.207 ± 0.014 mPa·s | viscosity (303.15 K, m1 = 0.9023): 1.244 ± 0.015 mPa·s | viscosity (303.15 K, m1 = 1.007): 1.299 ± 0.015 mPa·s | viscosity (303.15 K, m1 = 1.201): 1.409 ± 0.017 mPa·s | mass density (303.15 K, m1 = 0.0499): 998.53 ± 0.77 kg/m3 | mass density (303.15 K, m1 = 0.1012): 1000.47 ± 0.76 kg/m3 | mass density (303.15 K, m1 = 0.1588): 1004.01 ± 0.8 kg/m3 | mass density (303.15 K, m1 = 0.1983): 1006.37 ± 0.82 kg/m3 | mass density (303.15 K, m1 = 0.2691): 1010.16 ± 0.86 kg/m3 | mass density (303.15 K, m1 = 0.3004): 1011.73 ± 0.88 kg/m3 | mass density (303.15 K, m1 = 0.3421): 1013.71 ± 0.9 kg/m3 | mass density (303.15 K, m1 = 0.398): 1016.41 ± 0.93 kg/m3 | mass density (303.15 K, m1 = 0.4495): 1018.89 ± 0.95 kg/m3 | mass density (303.15 K, m1 = 0.5139): 1021.88 ± 0.98 kg/m3 | mass density (303.15 K, m1 = 0.6053): 1026.17 ± 1 kg/m3 | mass density (303.15 K, m1 = 0.6615): 1028.65 ± 1.1 kg/m3 | mass density (303.15 K, m1 = 0.7504): 1032.58 ± 1.1 kg/m3 | mass density (303.15 K, m1 = 0.7605): 1033 ± 1.1 kg/m3 | mass density (303.15 K, m1 = 0.8335): 1036.01 ± 1.1 kg/m3 | mass density (303.15 K, m1 = 0.9023): 1038.67 ± 1.2 kg/m3 | mass density (303.15 K, m1 = 1.007): 1042.61 ± 1.2 kg/m3 | mass density (303.15 K, m1 = 1.201): 1050.61 ± 1.3 kg/m3 | viscosity (308.15 K, m1 = 0.0499): 0.7579 ± 0.0088 mPa·s | viscosity (308.15 K, m1 = 0.1012): 0.7776 ± 0.0091 mPa·s | viscosity (308.15 K, m1 = 0.1588): 0.8002 ± 0.0093 mPa·s | viscosity (308.15 K, m1 = 0.1983): 0.8164 ± 0.0095 mPa·s | viscosity (308.15 K, m1 = 0.2691): 0.8406 ± 0.0098 mPa·s | viscosity (308.15 K, m1 = 0.3004): 0.8511 ± 0.0099 mPa·s | viscosity (308.15 K, m1 = 0.3421): 0.8691 ± 0.01 mPa·s | viscosity (308.15 K, m1 = 0.398): 0.892 ± 0.01 mPa·s | viscosity (308.15 K, m1 = 0.4495): 0.9131 ± 0.011 mPa·s | viscosity (308.15 K, m1 = 0.5139): 0.9369 ± 0.011 mPa·s | viscosity (308.15 K, m1 = 0.6053): 0.9752 ± 0.011 mPa·s | viscosity (308.15 K, m1 = 0.6615): 0.9976 ± 0.012 mPa·s | viscosity (308.15 K, m1 = 0.7504): 1.036 ± 0.012 mPa·s | viscosity (308.15 K, m1 = 0.7605): 1.04 ± 0.012 mPa·s | viscosity (308.15 K, m1 = 0.8335): 1.072 ± 0.013 mPa·s | viscosity (308.15 K, m1 = 0.9023): 1.106 ± 0.013 mPa·s | viscosity (308.15 K, m1 = 1.007): 1.161 ± 0.014 mPa·s | viscosity (308.15 K, m1 = 1.201): 1.266 ± 0.015 mPa·s | mass density (308.15 K, m1 = 0.0499): 996.06 ± 0.79 kg/m3 | mass density (308.15 K, m1 = 0.1012): 998.66 ± 0.77 kg/m3 | mass density (308.15 K, m1 = 0.1588): 1002.3 ± 0.78 kg/m3 | mass density (308.15 K, m1 = 0.1983): 1004.65 ± 0.81 kg/m3 | mass density (308.15 K, m1 = 0.2691): 1008.34 ± 0.84 kg/m3 | mass density (308.15 K, m1 = 0.3004): 1009.85 ± 0.86 kg/m3 | mass density (308.15 K, m1 = 0.3421): 1011.83 ± 0.88 kg/m3 | mass density (308.15 K, m1 = 0.398): 1014.42 ± 0.91 kg/m3 | mass density (308.15 K, m1 = 0.4495): 1016.77 ± 0.93 kg/m3 | mass density (308.15 K, m1 = 0.5139): 1019.63 ± 0.96 kg/m3 | mass density (308.15 K, m1 = 0.6053): 1023.9 ± 1 kg/m3 | mass density (308.15 K, m1 = 0.6615): 1026.41 ± 1 kg/m3 | mass density (308.15 K, m1 = 0.7504): 1030.21 ± 1.1 kg/m3 | mass density (308.15 K, m1 = 0.7605): 1030.65 ± 1.1 kg/m3 | mass density (308.15 K, m1 = 0.8335): 1033.59 ± 1.1 kg/m3 | mass density (308.15 K, m1 = 0.9023): 1036.34 ± 1.1 kg/m3 | mass density (308.15 K, m1 = 1.007): 1040.36 ± 1.2 kg/m3 | mass density (308.15 K, m1 = 1.201): 1048.17 ± 1.3 kg/m3
